Measured values as given in ChEMBL document CHEMBL1149443, “Synthesis of the novel series of bispyridinium compounds bearing (E)-but-2-ene linker and evaluation of their reactivation activity against chlorpyrifos-inhibited acetylcholinesterase” (Bioorg Med Chem Lett, 2006).

Target: T1, Acetylcholinesterase (Rattus norvegicus) (UniProt P37136)
T1 sequence (whole entry): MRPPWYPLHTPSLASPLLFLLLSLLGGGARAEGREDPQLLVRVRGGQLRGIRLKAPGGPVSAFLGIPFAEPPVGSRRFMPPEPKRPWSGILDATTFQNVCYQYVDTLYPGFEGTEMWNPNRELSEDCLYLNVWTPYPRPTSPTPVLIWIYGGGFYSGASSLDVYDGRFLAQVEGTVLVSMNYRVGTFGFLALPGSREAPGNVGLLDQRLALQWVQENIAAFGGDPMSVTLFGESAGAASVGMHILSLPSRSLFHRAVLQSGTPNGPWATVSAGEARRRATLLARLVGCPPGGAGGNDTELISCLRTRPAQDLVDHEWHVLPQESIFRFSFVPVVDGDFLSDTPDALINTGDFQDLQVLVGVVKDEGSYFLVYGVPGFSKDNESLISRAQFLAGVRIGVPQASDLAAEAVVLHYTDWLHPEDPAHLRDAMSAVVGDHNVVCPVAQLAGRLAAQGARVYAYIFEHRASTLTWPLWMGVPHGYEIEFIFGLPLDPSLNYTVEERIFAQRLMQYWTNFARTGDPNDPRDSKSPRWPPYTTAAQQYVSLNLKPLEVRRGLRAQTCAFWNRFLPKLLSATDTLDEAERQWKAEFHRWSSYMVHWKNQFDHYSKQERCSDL
Experiment: Inhibitory activity against AChE from rat brain homogenate
Format: functional
Settings: concentration not given here

Compound `CCOP(=S)(OCC)Oc1nc(Cl)c(Cl)cc1Cl` has an inhibition of 95%.
